Measured values from paper PMC11562385 (RSC Chemical Biology, 2024).
Like-named read-outs stand apart in the source and are kept apart here. Square brackets hold non-standard residues; d marks the D form. Peptide text beside a SMILES is read from it. * marks the point of attachment. Dab = NCC[C@H](N)C(=O)O; X1 = CN(C)C/C=C/C(=O)*

Tests used:
[1] = Variable-temperature CD melting curves (CD-melts at 228±2 nm and 202±2 nm), individual and global two-state fits; format: physicochemical; conditions: for ΔGF0: CD-melt at 228±2 nm, individual two-state Gibbs-Helmholtz fit (Origin 9.0), phosphate buffer 15 mM pH 6.5 ± MeOH; for ΔGF0 / DHm (fitted value, results from OriginPro) / Tm (fitted value, results from OriginPro): 0-95 °C; for Tm / Hairpin %-fold 291K / Hairpin %-fold 310K: Table S5, individual fit; for Tm: 228±2 nm; for -TΔSF0 / ΔCpF0 / ΔHF0 / ΔHm: as E16; for VT-CD %-fold: folded fraction (χF) at 25 °C from CD-melts, (R) regular / (B) bulged fold; for VT-CD %-fold / VT-CD Tm (°C): phosphate buffer 15 mM pH 6.5, up to 20% MeOH; for VT-CD Tm (°C): melting temperature from CD-melts; for DHm (fitted value, results from OriginPro) / Tm (fitted value, results from OriginPro): two-state fit of the CD melt θ - θcoil(95) vs T, peptide c 3.2e-5 to 5e-5 M; for Tm 228 nm Indiv.: exciton band 228 nm
How it was run: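 Far-UV CD melts (0 to 95 °C) at 15-120 µM peptide in 15 mM phosphate buffer, concentration set by Trp/Tyr absorbance at 280 nm; CD-exciton intensity taken as %-folding probe. Melting curves fitted individually and globally to a two-state model.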

[2] = molecular target: T1, PD1:PDL1 interaction (Homo sapiens, UniProt Q15116); experiment: PD1/PDL1 immunoblocking ELISA (BPS Bioscience kit cat # 72005); format: binding; conditions: for LE (ligand efficiency): LE = -RTln(EC50)/HA, HA = non-hydrogen atoms omitting the strap (RWV•••VWE)
T1 construct: purchased BPS Bioscience 72005

[3] = variable-temperature CD melt 0-95 °C, θ - θcoil(95) vs T, l = 0.1 cm, individual two-state fit
[4] = xlsx sheet of the peptide, individual fit of CD-melt

T1 sequence (Q15116 25-167 limits assumed): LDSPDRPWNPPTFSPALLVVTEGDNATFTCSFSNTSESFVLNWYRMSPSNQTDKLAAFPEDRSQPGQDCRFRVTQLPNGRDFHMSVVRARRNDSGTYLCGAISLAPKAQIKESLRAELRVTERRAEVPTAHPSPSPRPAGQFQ

| Compound | ΔGF0 [1] [kcal/mol] | Tm [1] [oC] | Hairpin %-fold 291K ([1]; 291 K) [%] | Hairpin %-fold 310K [1] [%] | -TΔSF0 [1] [kcal/mol] | ΔCpF0 [1] [cal.deg-1.mol-1] | ΔHF0 [1] [kcal/mol] | ΔHm [1] [kcal/mol] | VT-CD %-fold [1] | VT-CD Tm (°C) [1] [°C] | DHm (fitted value, results from OriginPro) ([1]; l 0.1 cm) [kcal/mol] | Tm (fitted value, results from OriginPro) ([1]; l 0.1 cm) [K] | LE (ligand efficiency) [2] | χF (291 K) 228 nm Glob. ([1]; global fit, 228 nm, 291 K) [%] | χF (291 K) 228 nm Indiv. ([1]; individual fit, 228 nm, 291 K) [%] | Tm 228 nm Indiv. ([1]; individual fit) [oC] | other results |
| --- | --- | --- | --- | --- | --- | --- | --- | --- | --- | --- | --- | --- | --- | --- | --- | --- | --- |
| CC[C@H](C)[C@H](NC(=O)[C@H](CC(=O)O)NC(=O)[C@H](CC(C)C)NC(=O)[C@H](CC(=O)O)NC(=O)[C@H](CCCNC(=N)N)NC(=O)[C@H](Cc1c[nH]c2ccccc12)NC(=O)[C@@H](NC(=O)[C@H](Cc1c[nH]c2ccccc12)NC(=O)[C@@H](N)CCCNC(=N)N)C(C)C)C(=O)N[C@@H](C)C(=O)N[C@H](C(=O)N[C@H](C(=O)N[C@@H](CCCNC(=N)N)C(=O)N[C@@H](CC(=O)O)C(=O)N[C@@H](Cc1ccc(O)cc1)C(=O)N[C@@H](Cc1c[nH]c2ccccc12)C(=O)N[C@H](C(=O)N[C@@H](Cc1c[nH]c2ccccc12)C(=O)N[C@@H](CCC(=O)O)C(=O)O)C(C)C)[C@@H](C)O)[C@@H](C)O [1f] (H-RWVWRDLDIATTRDYWVWE-OH) | -0.49 ± 0.01 | 39.4 | 78 ± 1 | 53 ± 1 | 9.96 ± 0.06 | -15 ± 3 | -10.5 ± 0.06 | -10.7 ± 0.04 | 78% (R) | 39 | -10.6792 | 312.539 | 0.06 | – | – | – | EC50 ([2]; ELISA, mean of three independent experiments, read-out: EC50 Value): 3.36 µM |
| CSCC[C@H](NC(=O)[C@H](CC(=O)O)NC(=O)CNC(=O)[C@H](CCCNC(=N)N)NC(=O)[C@H](Cc1ccc(O)cc1)NC(=O)[C@H](CC(=O)O)NC(=O)[C@H](CCCNC(=N)N)NC(=O)[C@H](CCCNC(=N)N)NC(=O)[C@H](C)NC(=O)[C@@H](NC(=O)[C@H](Cc1c[nH]c2ccccc12)NC(=O)[C@@H](N)CCCNC(=N)N)C(C)C)C(=O)NCC(=O)N[C@@H](Cc1ccccc1)C(=O)N[C@@H](CC(=O)O)C(=O)N[C@@H](Cc1ccc(O)cc1)C(=O)N[C@@H](Cc1c[nH]c2ccccc12)C(=O)N[C@@H](Cc1c[nH]cn1)C(=O)N[C@@H](Cc1c[nH]c2ccccc12)C(=O)N[C@@H](CCC(=O)O)C(=O)O [2d] (H-RWVARRDYRGDMGFDYWHWE-OH) | -1.59 ± 0.01 | 50.9 | 97 ± 1 | 80 ± 1 | 18.2 ± 0.2 | 0 | -19.8 ± 0.2 | -19.8 ± 0.07 | 97% (B) | 51 | – | – | 0.06 | – | – | – | %fold 291K ([1]; fraction folded at 291 K from two-state fit of CD-melt): 97%; DHm (fitted value, OriginPro two-state fit of CD-melt) [1, 3]: -19.8087 kcal/mol; Tm (fitted value, OriginPro two-state fit of CD-melt) [1, 3]: 324.048 K |
| CSCC[C@H](NC(=O)[C@H](CC(=O)O)NC(=O)[C@H](Cc1ccccc1)NC(=O)[C@H](CCCNC(=N)N)NC(=O)[C@H](Cc1ccc(O)cc1)NC(=O)[C@H](CC(=O)O)NC(=O)[C@H](CCCNC(=N)N)NC(=O)[C@H](Cc1c[nH]c2ccccc12)NC(=O)[C@@H](NC(=O)[C@H](Cc1c[nH]c2ccccc12)NC(=O)[C@@H](N)CCCNC(=N)N)C(C)C)C(=O)NCC(=O)N[C@@H](Cc1ccccc1)C(=O)N[C@@H](CC(=O)O)C(=O)N[C@@H](Cc1c[nH]c2ccccc12)C(=O)N[C@H](C(=O)N[C@@H](Cc1c[nH]c2ccccc12)C(=O)N[C@@H](CCC(=O)O)C(=O)O)C(C)C [1c] (H-RWVWRDYRFDMGFDWVWE-OH) | 0.31 ± 0.01 | -2.99 | 40 ± 1 | 32 ± 1 | 3.66 ± 0.01 | -23 ± 0.4 | -3.35 ± 0.01 | – | 40% (R) | <0 | – | – | 0.06 | – | – | – | DHm, fitted value from OriginPro [1, 4]: -2.72263 kcal/mol; Tm, fitted value from OriginPro [1, 4]: 270.158 K; EC50 ([2]; PD1:PDL1 inhibition EC50, ELISA, PDL1-coated plate, biotin-labeled human PD-1, 2 h rt, chemiluminescence, Hill fit, mean ± SD, n = 3, SD): 12.3 ± 1.5 µM; EC50 ([2]; [PD1•PDL1] blocking EC50, Fig. 3B, cut-off bars of congeneric pairs (Phe/Trp vs Gly), n = 3): > 5 µM |
| CSCC[C@H](NC(=O)CNC(=O)[C@H](CCC(=O)O)NC(=O)[C@H](CCCNC(=N)N)NC(=O)[C@H](C)NC(=O)[C@@H](NC(=O)[C@H](Cc1c[nH]c2ccccc12)NC(=O)[C@@H](N)CCCNC(=N)N)C(C)C)C(=O)N[C@@H](CC(N)=O)C(=O)N[C@H](C(=O)N[C@@H](CC(=O)O)C(=O)N[C@@H](Cc1c[nH]c2ccccc12)C(=O)N[C@@H](Cc1ccc(O)cc1)C(=O)N[C@@H](Cc1ccccc1)C(=O)N[C@@H](CC(=O)O)C(=O)N[C@@H](Cc1ccc(O)cc1)C(=O)N[C@@H](Cc1c[nH]c2ccccc12)C(=O)N[C@@H](Cc1c[nH]cn1)C(=O)N[C@@H](Cc1c[nH]c2ccccc12)C(=O)N[C@@H](CCC(=O)O)C(=O)O)[C@@H](C)O [2n] (H-RWVAREGMNTDWYFDYWHWE-OH) | 0.46 ± 0.01 | -5.1 | 36 ± 2 | 23 ± 2 | 6.11 ± 0.19 | -97 ± 14 | -5.65 ± 0.18 | -2.75 ± 0.80 | 36% (B) | <0 | -2.75455 | 268.058 | 0.07 | 0 | 36 | -5.1 | – |
| CC(C)[C@H](NC(=O)[C@H](Cc1c[nH]c2ccccc12)NC(=O)[C@@H](N)CCCNC(=N)N)C(=O)N[C@@H](C)C(=O)N[C@@H](CCCNC(=N)N)C(=O)N[C@@H](CCCNC(=N)N)C(=O)N[C@@H](CC(=O)O)C(=O)N[C@@H](Cc1ccc(O)cc1)C(=O)N[C@@H](CCCNC(=N)N)C(=O)N[C@@H](Cc1ccccc1)C(=O)N[C@@H](CC(=O)O)C(=O)N[C@@H](CCNC(=O)/C=C/CN(C)C)C(=O)NCC(=O)N[C@@H](Cc1ccccc1)C(=O)N[C@@H](CC(=O)O)C(=O)N[C@@H](Cc1ccc(O)cc1)C(=O)N[C@@H](Cc1c[nH]c2ccccc12)C(=O)N[C@H](C(=O)N[C@@H](Cc1c[nH]c2ccccc12)C(=O)N[C@@H](CCC(=O)O)C(=O)O)C(C)C [2cc] (H-RWVARRDYRFD[Dab](X1)GFDYWVWE-OH; N-terminus assumed) | -0.93 ± 0.002 | 48.7 | 87 ± 1 | 70 ± 1 | 8.50 ± 0.04 | -268 ± 2 | -9.43 ± 0.04 | -15.8 ± 0.04 | – | – | – | – | 0.13 | 95 | 88 | 49.8 | Tm 228 nm Glob. ([1]; global fit (shared maximum molar ellipticity), 228 nm): 51.7 oC; Tm 202 nm Glob. ([1]; global fit, 202 nm): 9.7 oC; χF (291 K) 202 nm Glob. ([1]; global fit, 202 nm, 291 K): 47%; χF (291 K) 202 nm Indiv. ([1]; individual fit, 202 nm, 291 K): 83%; Tm 202 nm Indiv. ([1]; individual fit, β-bulge band 202 nm): 44.3 oC; DHm (fitted value, OriginPro) ([1]; two-state fit of the CD melt (θ - θcoil(95) vs T, 0-95 °C), l 0.1 cm, enthalpy of folding at Tm): -15.8096 kcal/mol |
